These results are taken from patent US10308620B2, “Muscarinic M1 receptor positive allosteric modulators” (SUVEN LIFE SCIENCES LIMITED, priority 2015, dated 2019).

The nature of this series: Rodent pharmacokinetic study. The conditions noted are these: male Wistar rats. It counts as in vivo, rat. The procedure, abridged:
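Male Wistar rats (260±50 g, jugular-cannulated, n=3/group) dosed 3 mg/kg p.o. (fasted overnight) or 1 mg/kg i.v. Plasma sampled 0.08–24 h, quantified by LC-MS/MS (range ~1-1000 ng/mL). Cmax, Tmax, AUCt, T1/2, clearance, Vz and bioavailability derived by non-compartmental analysis.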

The mark [1] stands for this setting: rat, plasma, iv, 1 mg/kg i.v. (bolus).
Setting [2] is: rat, plasma, 3 mg/kg oral (gavage).

One may read the clearance as the volume of plasma or blood freed of the substance per unit of time. Low values mean a low capacity for elimination, high ones a high capacity for elimination. The half-life is the time needed for the level to fall by half in the phase considered. As usually defined, the Cmax is the maximum level reached in the sampled fluid or tissue. The term Tmax denotes the time from dosing to the highest level. What is called bioavailability is dose-corrected exposure relative to a reference, in per cent. Read a high bioavailability as good availability. With `O=C(N[C@H]1CCCC[C@@H]1O)C1=CN(Cc2cccc(F)c2F)c2ccccc2O1` [Example 18, N-(cis-1S, 2S-2-Hydroxycyclohexyl)-4-(2,3-difluorobenzyl)-4H-benzo[1,4]oxazine-2-carboxamide], the AUC0-t (1 mg/kg i.v. (bolus)) is 929 ± 27 ng·h/mL. The AUC0-t (3 mg/kg oral (gavage)) turned out to be 2070 ± 839 ng·h/mL. For the same molecule, under setting [1], the clearance is 17 ± 1 mL/min/kg and the half-life was 2.1 ± 0.1 h. The Vd (rat, plasma, iv, 1 mg/kg i.v. (bolus), read-out: Vz) stood at 3.2 ± 0.1 L/kg. Under setting [2], the peak level (Cmax) was 477 ± 96 ng/mL, the Tmax is 0.42 ± 0.14 h and the half-life was 3.9 ± 0.8 h. Besides, under “rat, plasma, 3 mg/kg oral vs 1 mg/kg i.v.”, the bioavailability was 74 ± 30%.
